Measurements taken from ChEMBL document CHEMBL4311942, “Design of Trp-Rich Dodecapeptides with Broad-Spectrum Antimicrobial Potency and Membrane-Disruptive Mechanism” (J Med Chem, 2019).
In brackets after ≈: the same amount, converted by molar mass. Where a SMILES comes first, the peptide text is derived from it.

Legend:
[1] = test system: Staphylococcus aureus; test: Antibacterial activity against Staphylococcus aureus ATCC 25923 incubated for 18 to 24 hrs by broth microdilution method; assay type: functional
[2] = test system: Staphylococcus aureus; test: Antibacterial activity against Staphylococcus aureus ATCC 29213 incubated for 18 to 24 hrs by broth microdilution method; assay type: functional
[3] = test system: Salmonella typhimurium; test: Antibacterial activity against Salmonella enterica serovar typhimurium C77-31 incubated for 18 to 24 hrs by broth microdilution method; assay type: functional, Salmonella enterica subsp. enterica serovar Typhimurium
[4] = test system: Escherichia coli; test: Antibacterial activity against Escherichia coli UB1005 incubated for 18 to 24 hrs by broth microdilution method; assay type: functional
[5] = test system: Escherichia coli; test: Antibacterial activity against Escherichia coli ATCC 25922 incubated for 18 to 24 hrs by broth microdilution method; assay type: functional
[6] = test system: Staphylococcus epidermidis; test: Antibacterial activity against Staphylococcus epidermidis ATCC 12228 incubated for 18 to 24 hrs by broth microdilution method; assay type: functional
[7] = test system: Erythrocyte; test: Haemolytic activity in human erythrocytes assessed as lowest concentration causing 5% hemolysis after 1 hr; assay type: ADME, cell-based
[8] = Therapeutic index, ratio of MHC for human RBC to geometric mean of peptide MIC for Escherichia coli ATCC 25922; assay type: toxicity; details: pooled result: one value given for 6 cell lines, strains, targets or settings, read-out: TI
[9] = Cytotoxicity against mouse RAW264.7 cells assessed as cell survival at <= 32 uM after 24 hrs by MTT assay relative to control; assay type: cell-based; details: RAW264.7 cells, up to 32 µM, read-out: Activity
[10] = test system: Escherichia coli; test: Antibacterial activity against Escherichia coli 20411 clinical isolate incubated for 18 to 24 hrs by broth microdilution method; assay type: functional
[11] = test system: Acinetobacter baumannii; test: Antibacterial activity against Acinetobacter baumannii AB1901 clinical isolate incubated for 18 to 24 hrs by broth microdilution method; assay type: functional
[12] = test system: Acinetobacter baumannii; test: Antibacterial activity against Acinetobacter baumannii AB1902 clinical isolate incubated for 18 to 24 hrs by broth microdilution method; assay type: functional
[13] = test system: Pseudomonas aeruginosa; test: Antibacterial activity against Pseudomonas aeruginosa 25349 clinical isolate incubated for 18 to 24 hrs by broth microdilution method; assay type: functional
[14] = test system: Staphylococcus aureus; test: Antibacterial activity against Staphylococcus aureus 11011 incubated for 18 to 24 hrs by broth microdilution method; assay type: functional
[15] = Cytotoxicity against mouse RAW264.7 cells assessed as cell survival at < 32 uM after 24 hrs by MTT assay; assay type: cell-based; details: read-out: Activity
[16] = test system: Escherichia coli; test: Antibacterial activity against ciprofloxacin-resistant Escherichia coli ATCC 25922 incubated for 18 to 24 hrs; assay type: functional

| MIC [1] [µM] | MIC [2] [µM] | MIC [3] [µM] | MIC [4] [µM] | MIC [5] [µM] | MIC [6] [µM] | MIC [10] [µM] | MIC [11] [µM] | MIC [12] [µM] | MIC [13] [µM] | MIC [14] [µM] | Structure (SMILES) | MHC [7] [µM] | selectivity ratio [8] | viability at 24 h [9] [%] | viability at 24 h [15] [%] | MIC [16] [µM] |
| --- | --- | --- | --- | --- | --- | --- | --- | --- | --- | --- | --- | --- | --- | --- | --- | --- |
| > 128 | 64 (≈ 110 µg/mL) | 64 (≈ 110 µg/mL) | 32 (≈ 55.2 µg/mL) | 16 (≈ 27.6 µg/mL) | 64 (≈ 110 µg/mL) | – | – | – | – | – | CC(C)C[C@H](NC(=O)[C@H](CCCNC(=N)N)NC(=O)[C@H](CCCCN)NC(=O)[C@H](Cc1c[nH]c2ccccc12)NC(=O)[C@@H](NC(=O)[C@H](CCCCN)NC(=O)[C@H](CCCCN)NC(=O)[C@H](CCCNC(=N)N)NC(=O)[C@H](CC(C)C)NC(=O)[C@H](CCCNC(=N)N)NC(=O)[C@@H](N)CCCNC(=N)N)[C@@H](C)O)C(=O)N[C@@H](Cc1c[nH]c2ccccc12)C(N)=O (H-RRLRKKTWKRLW-NH2) | > 128 | 4.49 | ≥ 70 | – | – |
| 2 (≈ 3.37 µg/mL) | 2 (≈ 3.37 µg/mL) | 2 (≈ 3.37 µg/mL) | 2 (≈ 3.37 µg/mL) | 2 (≈ 3.37 µg/mL) | 2 (≈ 3.37 µg/mL) | 2 (≈ 3.37 µg/mL) | 1 (≈ 1.68 µg/mL) | 2 (≈ 3.37 µg/mL) | 4 (≈ 6.74 µg/mL) | 2 (≈ 3.37 µg/mL) | CC[C@H](C)[C@H](NC(=O)[C@H](CCCCN)NC(=O)[C@H](Cc1c[nH]c2ccccc12)NC(=O)[C@H](CCCCN)NC(=O)[C@@H](NC(=O)[C@H](CCCCN)NC(=O)[C@H](Cc1c[nH]c2ccccc12)NC(=O)[C@H](CCCCN)NC(=O)[C@@H](NC(=O)[C@H](CCCCN)NC(=O)[C@@H](N)Cc1c[nH]c2ccccc12)[C@@H](C)CC)[C@@H](C)CC)C(=O)N[C@@H](CCCCN)C(N)=O (H-WKIKWKIKWKIK-NH2) | 64 | 32 | – | > 90 | – |
| 2 (≈ 3.28 µg/mL) | 1 (≈ 1.64 µg/mL) | 2 (≈ 3.28 µg/mL) | 2 (≈ 3.28 µg/mL) | 2 (≈ 3.28 µg/mL) | 2 (≈ 3.28 µg/mL) | 1 (≈ 1.64 µg/mL) | 2 (≈ 3.28 µg/mL) | 1 (≈ 1.64 µg/mL) | 4 (≈ 6.57 µg/mL) | 2 (≈ 3.28 µg/mL) | CC(C)[C@H](NC(=O)[C@H](CCCCN)NC(=O)[C@H](Cc1c[nH]c2ccccc12)NC(=O)[C@H](CCCCN)NC(=O)[C@@H](NC(=O)[C@H](CCCCN)NC(=O)[C@H](Cc1c[nH]c2ccccc12)NC(=O)[C@H](CCCCN)NC(=O)[C@@H](NC(=O)[C@H](CCCCN)NC(=O)[C@@H](N)Cc1c[nH]c2ccccc12)C(C)C)C(C)C)C(=O)N[C@@H](CCCCN)C(N)=O (H-WKVKWKVKWKVK-NH2) | > 128 | 144 | – | > 90 | – |
| 16 (≈ 28.1 µg/mL) | 8 (≈ 14 µg/mL) | 8 (≈ 14 µg/mL) | 4 (≈ 7.02 µg/mL) | 4 (≈ 7.02 µg/mL) | 8 (≈ 14 µg/mL) | – | – | – | – | – | CC(C)C[C@H](NC(=O)[C@H](CCCNC(=N)N)NC(=O)[C@H](CCCCN)NC(=O)[C@H](Cc1c[nH]c2ccccc12)NC(=O)[C@@H](NC(=O)[C@H](CCCCN)NC(=O)[C@H](CCCCN)NC(=O)[C@H](Cc1c[nH]c2ccccc12)NC(=O)[C@H](CC(C)C)NC(=O)[C@H](CCCNC(=N)N)NC(=O)[C@@H](N)CCCNC(=N)N)[C@@H](C)O)C(=O)N[C@@H](Cc1c[nH]c2ccccc12)C(N)=O (H-RRLWKKTWKRLW-NH2) | > 128 | 35.9 | ≥ 70 | – | – |
| 2 (≈ 3.57 µg/mL) | 2 (≈ 3.57 µg/mL) | 2 (≈ 3.57 µg/mL) | 2 (≈ 3.57 µg/mL) | 4 (≈ 7.14 µg/mL) | 2 (≈ 3.57 µg/mL) | 2 (≈ 3.57 µg/mL) | 2 (≈ 3.57 µg/mL) | 2 (≈ 3.57 µg/mL) | 8 (≈ 14.3 µg/mL) | 2 (≈ 3.57 µg/mL) | CC[C@H](C)[C@H](NC(=O)[C@H](CCCNC(=N)N)NC(=O)[C@H](Cc1c[nH]c2ccccc12)NC(=O)[C@H](CCCNC(=N)N)NC(=O)[C@@H](NC(=O)[C@H](CCCCN)NC(=O)[C@H](Cc1c[nH]c2ccccc12)NC(=O)[C@H](CCCNC(=N)N)NC(=O)[C@@H](NC(=O)[C@H](CCCNC(=N)N)NC(=O)[C@@H](N)Cc1c[nH]c2ccccc12)[C@@H](C)CC)[C@@H](C)O)C(=O)N[C@@H](CCCCN)C(N)=O (H-WRIRWKTRWRIK-NH2) | > 128 | 114 | – | > 90 | – |
| 32 (≈ 50.1 µg/mL) | 32 (≈ 50.1 µg/mL) | 16 (≈ 25 µg/mL) | 4 (≈ 6.26 µg/mL) | 4 (≈ 6.26 µg/mL) | 64 (≈ 100 µg/mL) | – | – | – | – | – | CC(C)C[C@H](NC(=O)[C@H](CCCNC(=N)N)NC(=O)[C@H](CC(C)C)NC(=O)[C@H](CCCNC(=N)N)NC(=O)[C@@H](NC(=O)[C@H](CCCCN)NC(=O)[C@H](CC(C)C)NC(=O)[C@H](CCCNC(=N)N)NC(=O)[C@H](CC(C)C)NC(=O)[C@H](CCCNC(=N)N)NC(=O)[C@@H](N)CC(C)C)[C@@H](C)O)C(=O)N[C@@H](CCCCN)C(N)=O (H-LRLRLKTRLRLK-NH2) | > 128 | 16 | ≥ 70 | – | – |

| Structure (SMILES) | MIC [1] [µM] | MIC [2] [µM] | MIC [3] [µM] | MIC [4] [µM] | MIC [5] [µM] | MIC [6] [µM] | MIC [10] [µM] | MIC [11] [µM] | MIC [12] [µM] | MIC [13] [µM] | MIC [14] [µM] | MHC [7] [µM] | selectivity ratio [8] | viability at 24 h [9] [%] | viability at 24 h [15] [%] | MIC [16] [µM] |
| --- | --- | --- | --- | --- | --- | --- | --- | --- | --- | --- | --- | --- | --- | --- | --- | --- |
| CCn1cc(C(=O)O)c(=O)c2cc(F)c(N3CCNCC3)cc21 [NORFLOXACIN] | 2 (≈ 0.639 µg/mL) | 1 (≈ 0.319 µg/mL) | 0.25 (≈ 0.0798 µg/mL) | 4 (≈ 1.28 µg/mL) | 0.125 (≈ 0.0399 µg/mL) | 1 (≈ 0.319 µg/mL) | 0.0625 (≈ 0.02 µg/mL) | > 128 | > 128 | 2 (≈ 0.639 µg/mL) | 2 (≈ 0.639 µg/mL) | – | – | – | – | 1 (≈ 0.319 µg/mL) |
